Laboratory results reported in the supplement of paper PMC10307832.

Experiments:
Test in all cases: relative viability (nuclei count vs DMSO), 5 days (fraction); higher = more cells survive
[1] = compound: CN(C)CC1=CC(=CC=C1)N=C(C2=CC=CC=C2)C3=C(NC4=C3C=CC(=C4)C(=O)N(C)C)O + N=C(N)NC(=N)NCCc1ccccc1 [Phenformin] (partner 250 µM)
Procedure, shortened: (§1)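 The day after seeding in 1536-well plates, lung cancer cell lines were treated by pin tool with a single drug, or with a fixed anchor-drug dose together with five library-drug doses (not always all listed) in √10 steps. After 5 days, a combined fix-and-stain solution (final 0.05% Triton X-100, 1% formaldehyde, 1 ug/ml Hoechst) was added. Nuclei counted on 4× images gave relative viability as treated counts over vehicle counts, reported as the median of duplicate plates.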

[2] = compound: CN(C)CC1=CC(=CC=C1)N=C(C2=CC=CC=C2)C3=C(NC4=C3C=CC(=C4)C(=O)N(C)C)O + C[C@@H](Oc1cc(-c2cnn(C3CCNCC3)c2)cnc1N)c1c(Cl)ccc(F)c1Cl [Crizotinib] (partner 1 µM)
Procedure, shortened: as §1

[3] = compound: CN(C)CC1=CC(=CC=C1)N=C(C2=CC=CC=C2)C3=C(NC4=C3C=CC(=C4)C(=O)N(C)C)O + Nc1ncn([C@H]2C[C@H](O)[C@@H](CO)O2)c(=O)n1 [Decitabine] (partner 2 µM)
Procedure, shortened: as §1

[4] = compound: CN(C)CC1=CC(=CC=C1)N=C(C2=CC=CC=C2)C3=C(NC4=C3C=CC(=C4)C(=O)N(C)C)O + CC1(C)CCC(c2ccc(Cl)cc2)=C(CN2CCN(c3ccc(C(=O)NS(=O)(=O)c4ccc(N[C@H](CCN5CCOCC5)CSc5ccccc5)c(S(=O)(=O)C(F)(F)F)c4)cc3)CC2)C1 [Navitoclax] (partner 0.5 µM)
Procedure, shortened: as §1

Cell Line	relative viability ([1]; first compound 0.08 µM)	relative viability ([1]; first compound 0.253 µM)	relative viability ([1]; first compound 0.8 µM)	relative viability ([1]; first compound 2.53 µM)	relative viability ([1]; first compound 8 µM)	relative viability ([2]; first compound 0.08 µM)	relative viability ([2]; first compound 0.253 µM)	relative viability ([2]; first compound 0.8 µM)	relative viability ([2]; first compound 2.53 µM)	relative viability ([2]; first compound 8 µM)	relative viability ([3]; first compound 0.08 µM)	relative viability ([3]; first compound 0.253 µM)	relative viability ([3]; first compound 0.8 µM)	relative viability ([3]; first compound 2.53 µM)	relative viability ([3]; first compound 8 µM)	relative viability ([4]; first compound 0.08 µM)	relative viability ([4]; first compound 0.253 µM)	relative viability ([4]; first compound 0.8 µM)	relative viability ([4]; first compound 2.53 µM)	relative viability ([4]; first compound 8 µM)
201T	0.437	0.449	0.416	0.428	0.41	1.03	1.03	1.02	1.02	0.981	0.836	0.874	0.849	0.855	0.738	1.2	1.23	1.14	1.17	1.18
A549	0.202	0.157	0.124	0.0946	0.16	0.847	0.683	0.818	0.686	0.731	–	0.286	0.27	0.223	0.246	1.23	1.24	1.19	1.2	1.2
A-427	0.378	0.385	0.308	0.257	0.266	0.984	0.82	0.865	0.855	0.719	0.562	0.614	0.547	0.554	0.534	0.96	0.961	1.01	0.92	0.964
ABC-1	0.205	0.277	0.231	0.207	0.243	1.17	1.12	1.01	0.764	0.891	1.38	0.939	1.2	0.99	0.904	–	–	–	–	–
BEN	0.233	0.274	0.238	0.223	0.267	0.791	0.739	0.866	0.876	0.641	0.674	0.913	0.787	0.69	0.771	0.0778	0.06	0.0663	0.0535	0.0691
CAL-12T	0.55	0.563	0.529	0.555	0.543	0.665	0.592	0.778	0.611	0.612	–	–	–	–	–	1.11	1.32	1.21	0.963	1.25
COR-L23	0.495	0.413	0.402	0.423	0.421	0.675	0.603	0.622	0.532	0.553	0.442	0.422	0.433	0.429	0.401	1.02	1.07	1.07	0.77	0.791
COR-L 105	0.464	0.546	0.427	0.455	0.478	0.857	0.892	0.882	0.644	0.625	1.12	0.621	0.635	0.667	0.628	0.664	0.795	0.762	0.733	0.562
Calu-6	–	–	–	–	–	0.758	0.749	0.762	0.814	0.859	–	–	–	–	–	0.815	0.831	0.963	0.888	0.928
